# Test results published in patent publication US20250325531A1, “TREATMENT OF SYSTOLIC DYSFUNCTION” (MyoKardia, Inc., priority 2024, published 2025).
# System: patients with stable HFrEF
# Test: Safety and tolerability (TEAEs, serum troponin, ECG, Holter) in MAD cohorts, patients with stable HFrEF
# Format: in vivo, human
# Procedure: During the study, multiple evaluations were performed that included: serial TTE assessments (11-14 TTEs per patient on Days 1, 2, 3, 4, 7, 9, 10 and 11); PK sampling (PK sample collected concomitantly with every post-randomization echocardiogram); ECGs (on Days 2, 3, 4, 7, 9, 10, 11 and 16); troponin (collected concomitantly with every post-randomization ECG); and safety laboratory assessments. Confined patients underwent continuous telemetry. Holter monitoring was performed in all patients at baseline (Days 1-2) and at the end of double-blind treatment (Days 7-9). Vital signs were collected daily.
# Safety and efficacy assessments were conducted by measuring patients' vital signs and laboratory parameters; performing TTE to measure, e.g., systolic ejection time; performing electrocardiograms (e.g., 12-lead ECG), real-time ECG telemetry (e.g., at least 3-lead), and Holter ECG; and measuring levels of troponin (e.g., troponin I and/or troponin T) and 4β-hydroxycholesterol.
# Abnormal and/or rising troponin values (as per investigator's judgment and taking into account potential baseline troponin elevation frequently observed in heart failure) led to the patient being clinically evaluated for possible myocardial ischemia. […] The entire clinical context (e.g., signs, symptoms, new ECG changes, new troponin, and CK-MB abnormalities) was evaluated and correlated with any other relevant clinical findings, patient's medical history, and laboratory data to determine the clinical significance of the findings. Troponin results performed on Day 2 of Part 1 (SAD) and Day 10 of Part 2 (MAD) at a local lab were reviewed prior to the patient being discharged the next day.
# [1] = Cohort A + C 75 mg BID (n = 15)
smiles,measurement,setting,value
"Cn1cc(S(=O)(=O)[C@@](C)(F)C2CCN(C(=O)Nc3ccon3)CC2)c(C(F)F)n1 [Compound I, (R)-4-(1-((3-(difluoromethyl)-1-methyl-1H-pyrazol-4-yl)sulfonyl)-1-fluoroethyl)-N-(isoxazol-3-yl) piperidine-1-carboxamide]",Number of patients with any AE leading to death,[1],0
same,Number of patients with any TEAE,[1],6
same,Number of patients with any TEAE leading to permanent treatment discontinuation,[1],0
same,Number of patients with any serious TEAE,[1],1
same,"TEAE Abdominal discomfort, n patients",[1],0
same,"TEAE Alanine aminotransferase increased, n patients",[1],1
same,"TEAE Anemia, n patients",[1],1
same,"TEAE Application site erosion, n patients",[1],0
same,"TEAE Arthralgia, n patients",[1],0
same,"TEAE Arthropod bite, n patients",[1],0
same,"TEAE Back pain, n patients",[1],0
same,"TEAE Blood creatine phosphokinase increased, n patients",[1],0
same,"TEAE Blood creatinine increased, n patients",[1],0
same,"TEAE Cough, n patients",[1],1
same,"TEAE Dermatitis contact, n patients",[1],0
same,"TEAE Dry eye, n patients",[1],0
same,"TEAE Fatigue, n patients",[1],2
same,"TEAE Fluid overload, n patients",[1],0
same,"TEAE Gingival pain, n patients",[1],0
same,"TEAE Hyperkalemia, n patients",[1],0
same,"TEAE Infusion site erythema, n patients",[1],0
same,"TEAE Nasopharyngitis, n patients",[1],0
same,"TEAE Rash, n patients",[1],0
same,"TEAE Renal failure, n patients",[1],0
same,"TEAE Renal impairment, n patients",[1],0
same,"TEAE Testicular pain, n patients",[1],0
same,"TEAE Troponin increased, n patients",[1],1
same,"TEAE Ventricular tachycardia, n patients",[1],0
same,Number of patients with any AE leading to death,Cohort B 50 mg BID (n = 9),0
same,Number of patients with any TEAE,Cohort B 50 mg BID (n = 9),7
same,Number of patients with any TEAE leading to permanent treatment discontinuation,Cohort B 50 mg BID (n = 9),0
same,Number of patients with any serious TEAE,Cohort B 50 mg BID (n = 9),0
same,"TEAE Abdominal discomfort, n patients",Cohort B 50 mg BID (n = 9),1
same,"TEAE Alanine aminotransferase increased, n patients",Cohort B 50 mg BID (n = 9),1
same,"TEAE Anemia, n patients",Cohort B 50 mg BID (n = 9),0
same,"TEAE Application site erosion, n patients",Cohort B 50 mg BID (n = 9),1
same,"TEAE Arthralgia, n patients",Cohort B 50 mg BID (n = 9),0
same,"TEAE Arthropod bite, n patients",Cohort B 50 mg BID (n = 9),0
same,"TEAE Back pain, n patients",Cohort B 50 mg BID (n = 9),0
same,"TEAE Blood creatine phosphokinase increased, n patients",Cohort B 50 mg BID (n = 9),1
same,"TEAE Blood creatinine increased, n patients",Cohort B 50 mg BID (n = 9),0
same,"TEAE Cough, n patients",Cohort B 50 mg BID (n = 9),0
same,"TEAE Dermatitis contact, n patients",Cohort B 50 mg BID (n = 9),2
same,"TEAE Dry eye, n patients",Cohort B 50 mg BID (n = 9),0
same,"TEAE Fatigue, n patients",Cohort B 50 mg BID (n = 9),0
same,"TEAE Fluid overload, n patients",Cohort B 50 mg BID (n = 9),1
same,"TEAE Gingival pain, n patients",Cohort B 50 mg BID (n = 9),0
same,"TEAE Hyperkalemia, n patients",Cohort B 50 mg BID (n = 9),1
same,"TEAE Infusion site erythema, n patients",Cohort B 50 mg BID (n = 9),1
same,"TEAE Nasopharyngitis, n patients",Cohort B 50 mg BID (n = 9),0
same,"TEAE Rash, n patients",Cohort B 50 mg BID (n = 9),1
same,"TEAE Renal failure, n patients",Cohort B 50 mg BID (n = 9),0
same,"TEAE Renal impairment, n patients",Cohort B 50 mg BID (n = 9),0
same,"TEAE Testicular pain, n patients",Cohort B 50 mg BID (n = 9),0
same,"TEAE Troponin increased, n patients",Cohort B 50 mg BID (n = 9),0
same,"TEAE Ventricular tachycardia, n patients",Cohort B 50 mg BID (n = 9),1
same,Number of patients with any AE leading to death,Cohort D 100 mg BID (n = 6),0
same,Number of patients with any TEAE,Cohort D 100 mg BID (n = 6),4
same,Number of patients with any TEAE leading to permanent treatment discontinuation,Cohort D 100 mg BID (n = 6),0
same,Number of patients with any serious TEAE,Cohort D 100 mg BID (n = 6),0
same,"TEAE Abdominal discomfort, n patients",Cohort D 100 mg BID (n = 6),0
same,"TEAE Alanine aminotransferase increased, n patients",Cohort D 100 mg BID (n = 6),0
same,"TEAE Anemia, n patients",Cohort D 100 mg BID (n = 6),0
same,"TEAE Application site erosion, n patients",Cohort D 100 mg BID (n = 6),0
same,"TEAE Arthralgia, n patients",Cohort D 100 mg BID (n = 6),0
same,"TEAE Arthropod bite, n patients",Cohort D 100 mg BID (n = 6),1
same,"TEAE Back pain, n patients",Cohort D 100 mg BID (n = 6),0
same,"TEAE Blood creatine phosphokinase increased, n patients",Cohort D 100 mg BID (n = 6),0
same,"TEAE Blood creatinine increased, n patients",Cohort D 100 mg BID (n = 6),1
same,"TEAE Cough, n patients",Cohort D 100 mg BID (n = 6),0
same,"TEAE Dermatitis contact, n patients",Cohort D 100 mg BID (n = 6),0
same,"TEAE Dry eye, n patients",Cohort D 100 mg BID (n = 6),0
same,"TEAE Fatigue, n patients",Cohort D 100 mg BID (n = 6),0
same,"TEAE Fluid overload, n patients",Cohort D 100 mg BID (n = 6),0
same,"TEAE Gingival pain, n patients",Cohort D 100 mg BID (n = 6),1
same,"TEAE Hyperkalemia, n patients",Cohort D 100 mg BID (n = 6),0
same,"TEAE Infusion site erythema, n patients",Cohort D 100 mg BID (n = 6),0
same,"TEAE Nasopharyngitis, n patients",Cohort D 100 mg BID (n = 6),0
same,"TEAE Rash, n patients",Cohort D 100 mg BID (n = 6),0
same,"TEAE Renal failure, n patients",Cohort D 100 mg BID (n = 6),0
same,"TEAE Renal impairment, n patients",Cohort D 100 mg BID (n = 6),0
same,"TEAE Testicular pain, n patients",Cohort D 100 mg BID (n = 6),0
same,"TEAE Troponin increased, n patients",Cohort D 100 mg BID (n = 6),1
same,"TEAE Ventricular tachycardia, n patients",Cohort D 100 mg BID (n = 6),1
same,QTc,MAD cohorts,No increase in QTc
same,patients with TEAEs,"MAD cohorts, Compound I patients",17 (57%) n (%)
same,patients with transient and asymptomatic increase in troponin I or hs-troponin T,"MAD cohorts, all doses",7 (23%) n (%)
same,Number of patients with any AE leading to death,Total Compound I (n = 30),0
same,Number of patients with any TEAE,Total Compound I (n = 30),17
same,Number of patients with any TEAE leading to permanent treatment discontinuation,Total Compound I (n = 30),0
same,Number of patients with any serious TEAE,Total Compound I (n = 30),1
same,"TEAE Abdominal discomfort, n patients",Total Compound I (n = 30),1
same,"TEAE Alanine aminotransferase increased, n patients",Total Compound I (n = 30),2
same,"TEAE Anemia, n patients",Total Compound I (n = 30),1
same,"TEAE Application site erosion, n patients",Total Compound I (n = 30),1
same,"TEAE Arthralgia, n patients",Total Compound I (n = 30),0
same,"TEAE Arthropod bite, n patients",Total Compound I (n = 30),1
same,"TEAE Back pain, n patients",Total Compound I (n = 30),0
same,"TEAE Blood creatine phosphokinase increased, n patients",Total Compound I (n = 30),1
same,"TEAE Blood creatinine increased, n patients",Total Compound I (n = 30),1
same,"TEAE Cough, n patients",Total Compound I (n = 30),1
same,"TEAE Dermatitis contact, n patients",Total Compound I (n = 30),2
same,"TEAE Dry eye, n patients",Total Compound I (n = 30),0
same,"TEAE Fatigue, n patients",Total Compound I (n = 30),2
same,"TEAE Fluid overload, n patients",Total Compound I (n = 30),1
same,"TEAE Gingival pain, n patients",Total Compound I (n = 30),1
same,"TEAE Hyperkalemia, n patients",Total Compound I (n = 30),1
same,"TEAE Infusion site erythema, n patients",Total Compound I (n = 30),1
same,"TEAE Nasopharyngitis, n patients",Total Compound I (n = 30),0
same,"TEAE Rash, n patients",Total Compound I (n = 30),1
same,"TEAE Renal failure, n patients",Total Compound I (n = 30),0
same,"TEAE Renal impairment, n patients",Total Compound I (n = 30),0
same,"TEAE Testicular pain, n patients",Total Compound I (n = 30),0
same,"TEAE Troponin increased, n patients",Total Compound I (n = 30),2
same,"TEAE Ventricular tachycardia, n patients",Total Compound I (n = 30),2
same,ventricular arrhythmias (Holter monitoring),compared with placebo,no increase in ventricular arrhythmias
same,systolic blood pressure,higher concentration group,decrease
same,"serious AE, one patient",not considered related to study treatment,hyperkalemia
